According to US20240390308A1, “APPLICATION METHOD OF POTASSIUM ION CHANNEL BLOCKER IN PREPARATION OF DRUGS FOR TREATING LIVER FIBROSIS” (Affiliated Hospital of Zunyi Medical University, priority 2023, published 2024):

What was measured:
[1] = test system: CCl4-induced liver fibrosis in mice; assay: CCl4-induced liver fibrosis in mice, HE staining and Sirius-red staining of liver tissue; format: in vivo
Description: Experimental materials include 60 healthy male C57 mice (20-25g/mouse), gavage needles, 1 milliliter (mL) syringes, CCl4 solution, olive oil and sotalol solution. Experimental method is as follows. The CCl4 solution is dissolved in the olive oil solution (CCl4: olive oil=1:[…]), prepared and used immediately, concentration is 0.1milliliters per 20 grams (0.1 mL/20 g), intragastrically administered twice a week for a total of 8 weeks to the mice. The sotalol solution is mixed with physiological saline, prepared and used immediately, concentration is 1 millimole per liter (mM), 0.2 mL/20 g, and intraperitoneally injected once a day for a total of 6-8 weeks to the mice. The mice are randomly divided into four groups: a. a normal control group; b. a model group, mice are intragastrically administered the CCl4 for 8 weeks; c. a CCl4 and sotalol group, mice are treated with the CCl4 alone for 2 weeks, followed by concurrent administration of the sotalol and CCl4 for 6 weeks; d. a sotalol group, mice are intraperitoneally injected the sotalol for 8 weeks. The mice are sacrificed in sequence at the 2nd, 4th, 6th, and 8th weeks of modeling, one for each group, liver samples of the mice are taken out and placed in a -80 Celsius degree (° C.) refrigerator for quick-frozen storage, and other livers are fixed in 4% paraformaldehyde for 24 hours and then embedded in paraffins. […] Then, all mice are sacrificed, and eyeball blood of mice is taken to measure liver function indexes (alanine transaminase abbreviated as ALT, aspartate transaminase abbreviated as AST). In addition, the liver tissue is fixed with formaldehyde and embedded in paraffins for later use.

[2] = test system: α-SMA, LC3, p62, N-cadherin, vimentin, ZO-1 in liver tissue; assay: Expression of α-SMA, autophagy-related index and EMT markers in liver tissue by Western-blot; format: in vivo, mice; conditions: liver tissue induced by CCl4, after treatment with sotalol
From the text: Experimental materials include mouse liver tissue, a tweezer, a scissor, 2 millimeters (mm) steel balls, a magnet, a cell lysis solution, a PBS solution, a bicinchoninic acid (BCA) protein quantitative kit, defatted milk powder, and primary antibodies and corresponding secondary antibodies related to α-SMA, autophagy and EMT. Experimental method are as follows. The liver tissue in the embodiment 1 is taken about the size of a grain of rice by using the tweezer and the scissor, added to labeled 1.5 mL Eppendorf (EP) tubes, two 2 mm steel balls and 200-250 microliter (μL) cell lysis solution are added into each of the EP tubes, after the parameters are set, and the EP tubes are placed in the grinder for full grinding. Then, the steel balls are sucked out by using the magnet, and after being applied to the ice for 30 minutes, the EP tubes are centrifuged at 12000 revolutions per minute (rpm) for 30 minutes at 4° C. A standard curve is made, 1 μL protein samples, 19 μL PBS solution and 200 μL (50:1) BCA working solution are added in each well of a 96-well plate, and two replicate wells are added per well. The 96-well plate is put in a 37°° C. drying oven for 30 minutes. The optical density (OD) value at 560 nanometers (nm) is measured by using an enzyme-linked immunosorbent assay (ELISA) on the machine to calculate the concentration of the protein. The protein is boiled in boiling water for 5 minutes before samples loading, and the samples are performed with gel electrophoresis, membrane transfer and blocking sequentially, then the treated samples are exposed after incubating with the primary antibodies and the secondary antibodies.

HSC-T6 cells = assay: Sotalol and TGF-β1 co-culture, proliferation of hepatic stellate cells detected by CCK-8; format: cell-based, rat; conditions: sotalol 200, 400, 800, 1000 μM added 3 hours before TGF-β1 10 ng/ml; 48 hours incubation
Description: Experimental materials include HSC-T6 cells (also referred to as immortalized hepatic rat stellate cell line), a Dulbecco's modified Eagle's medium (DMEM) complete medium, a 96-well plate, a counting chamber (also referred to as hemocytometer), CCK-8 working solution, and the like. Experimental method are as follows. The HSC-T6 cells are cultured in the DMEM culture medium containing 10% fetal bovine serum, 1% double antibodies (penicillin-streptomycin solution) and 1% nonessential amino acid (NEAA) at 37° C. and 5% CO2, and the cells are digested by using trypsin for passage cultivation after the cells are converged to 80% to 90%. Next, the cells are inoculated in the plate, specifically, a density of 7×10^6 cells per liter (cells/L) cell suspension is taken and added at 100 μL cell suspension per well to the 96-well culture plate, each group has 6 replicate wells. […] After incubation for 48 hours, 100 μL of “10% CCK-8 and 90% medium” mixed solution is added to each well and incubated for 1 hour to 4 hours at 37° C., the wavelength is set at 450 nm, and absorbance value is read and recorded at the corresponding wavelength by using a fully-automated enzyme labeling instrument. Effects of sotalol on cell proliferation are detected by CCK-8, and an optimal time of action and an optimal drug concentration are screened.

[3] = test system: α-SMA, LC3, p62, ZO-1, N-cadherin, vimentin in HSC-T6 cells; assay: Expression of α-SMA, autophagy-related index and EMT markers in HSCs by Western-blot; format: cell-based, rat; conditions: sotalol 400 μM, TGF-β1 10 ng/mL, 48 hours
Description: Experimental materials include HSC-T6 cells, a DMEM complete medium, cell culture dishes, a cell lysis solution, a PBS solution, a BCA protein quantitative kit, defatted milk powder, primary antibodies and corresponding secondary antibodies related to α-SMA, autophagy and EMT. Experimental method are as follows. The experiment is grouped into a normal control group, a TGF-β 1 group, a sotalol +TGF-β1 group, and a sotalol group, where the stimulation concentration of the TGF-β1 is 10 ng/mL and concentration of the sotalol is 400 μM. The HSC-T6 cells are cultured by using cell culture dishes, incubated, dosed, and added with TGF-β1according to the conditions described in the embodiment 4. After 48 hours, the incubated cells are rinsed by the precooled PBS solution for 3-4 times, and residual PBS liquid is absorbed with a filter paper, 50 μL radioimmune precipitation assay (RIPA) and 0.5 μL (100:1) phenylmethanesulfonyl fluoride (PMSF) with […] concentration are added in a 50 mL culture flask and placed on ice for 30 minutes. Then, the protein is scraped by a cell scraper from the culture flask and suctioned out into the EP tubes, and centrifuged at 12000 rpm for 30 minutes at 4° C. A standard curve is made, 1 μL protein samples, 19 μL PBS solution and 200 μL (50:1) BCA working solution are added in each well of the 96-well plate, and two replicate wells are added per well. The 96-well plate is put in a 37° C. drying oven for 30 minutes. The OD value at 560 nm is measured by using an enzyme-linked immunosorbent assay on the machine to calculate the concentration of the protein. The protein is boiled in boiling water for 5 minutes before samples loading, and the samples are performed with gel electrophoresis, membrane transfer and blocking sequentially, then the treated samples are exposed after incubating with the primary antibodies and the secondary antibodies.

α-SMA = α-SMA expression in liver tissue detected by immunohistochemistry; format: in vivo; conditions: liver fibrosis mice induced by CCl4, treated with sotalol
Description: Experimental methods are as follows. The paraffin blocks prepared in the embodiment 1 are taken and performed immunohistochemistry according to the procedures after slicing into slices. The slices are soaked in 100%, 95%, 80%, and 75% ethanol for 5 minutes sequentially in that order, then rinsed them with the PBS solution, catalase is removed by using hydrogen peroxide, and antigens are repaired by sodium citrate repair solution. After cooling, the treated slices are rinsed with the PBS solution, sealed at room temperature for 30 minutes, then incubated overnight at 4° C. with primary antibodies, and incubated at room temperature with secondary antibodies for 1 hour on the next day. Then, the incubated slices are stained with diaminobenzidine (DAB), counterstained with hematoxylin, differentiated with hydrochloric acid alcohol, dehydrated, sealed, and finally observed and photographed under the microscope.

[4] = CCl4 and sotalol group: CCl4 alone 2 weeks, then sotalol (1 mM, 0.2 mL/20 g, i.p. once a day) plus CCl4 for 6 weeks, vs model group

## CC(C)NCC(O)c1ccc(NS(C)(=O)=O)cc1 (centres unmarked) [sotalol]
[1]; [4]
  degree of damage of the liver tissue (HE staining): significantly reduced
  degree of fibrous tissue proliferation (HE staining): significantly reduced
[1]; sotalol group: sotalol 1 mM, 0.2 mL/20 g, i.p. once a day for 8 weeks, no CCl4
  collagen fibers (Sirius-red staining), induction of liver fibrosis by sotalol alone: no obvious collagen fibers are observed
[2]
  accumulation of ZO-1 in liver tissue (Western-blot): promoted
  accumulation of p62 in liver tissue (Western-blot): promoted
  expression of LC3 in liver tissue (Western-blot): significantly reduced
  expression of N-cadherin in liver tissue (Western-blot): inhibited
  expression of vimentin in liver tissue (Western-blot): inhibited
  expression of α-SMA in liver tissue (Western-blot): significantly reduced
HSC-T6 cells
  TGF-β1-induced proliferation trend of HSC-T6 cells (CCK-8): inhibited
[3]
  accumulation of P62 in HSCs (Western-blot): promoted
  accumulation of ZO-1 in HSCs (Western-blot): promoted
  expression of LC3 in HSCs (Western-blot): significantly inhibited
  expression of N-cadherin in HSCs (Western-blot): inhibited
  expression of vimentin in HSCs (Western-blot): inhibited
  expression of α-SMA in HSCs (Western-blot): significantly reduced
α-SMA
  expression of α-SMA in liver tissue (immunohistochemistry): down-regulate
